Structures are written as SMILES.

The data set has as its system Phospholipidosis. Description: Literature-mined public compounds from Kruhlak et al phospholipidosis modelling dataset.
As to `CC[C@]1(O)CC[C@H]2[C@@H]3CCC4=CCCC[C@@H]4[C@H]3CC[C@@]21C`, the Phospholipidosis entry was “Negative: based on the absence of positive reported data from WMDD”.

As to `CC(=O)O.C[C@H]1C[C@@H]2[C@H]([C@@H](O)C[C@@]3(C)[C@H]2CC[C@]3(O)C(=O)CO)[C@@]2(C)C=CC(=O)C=C12`, the Phospholipidosis entry is reported as “Negative: based on the absence of positive reported data from WMDD”.

With `CNS(=O)(=O)Cc1ccc2[nH]cc(CCN(C)C)c2c1`, the Phospholipidosis entry is reported as “Negative: confirmed by electron microscopy”.

As to `CC[C@@H](C(N)=O)N1CCCC1=O`, the Phospholipidosis result is “Negative: based on the absence of positive reported data from WMDD”.

With `COc1ccc(CC2c3cc(OC)c(OC)cc3CC[N+]2(C)CCC(=O)OCCCCCOC(=O)CC[N+]2(C)CCc3cc(OC)c(OC)cc3C2Cc2ccc(OC)c(OC)c2)cc1OC` (stereo not drawn), the Phospholipidosis result is given as “Negative: based on the absence of positive reported data from WMDD”.

For the molecule `CN(C)CCN(Cc1cccs1)c1ccccn1`, the Phospholipidosis result is recorded as “Negative: confirmed by electron microscopy”.

As to `CCN(CC)CCSC(=O)C(c1ccccc1)c1ccccc1`, the Phospholipidosis entry is “Negative: based on the absence of positive reported data from WMDD”.

In the case of `COc1nccnc1NS(=O)(=O)c1ccc(N)cc1`, the Phospholipidosis entry is “Negative: based on the absence of positive reported data from WMDD”.

As for `CN1CCN(Cc2nc3cccc4c3c([n+]2[O-])-c2ccccc2-4)CC1`, the Phospholipidosis entry was “Positive: weak inducer based on presence of foamy macrophages and cytoplasmic vacuolations”.

As to `CCOC(=O)[C@H](CCc1ccccc1)N[C@@H](C)C(=O)N1Cc2ccccc2C[C@H]1C(=O)O`, the Phospholipidosis result is given as “Negative: based on the absence of positive reported data from WMDD”.

As for `CN(C)CCC=C1c2ccccc2CCc2c(Cl)cccc21`, the Phospholipidosis entry is on record as “Positive: strong inducer confirmed by electron microscopy”.

Take `OC(CN1CCCCC1)c1ccc(C=C2c3ccccc3-c3ccccc32)cc1` (stereo not drawn): the Phospholipidosis result was “Positive: strong inducer confirmed by electron microscopy”.

With `CCCC[C@@H]1CC(=O)[C@]2(O)O[C@@H]3[C@@H](NC)[C@@H](O)[C@@H](NC)[C@H](O)[C@H]3O[C@@H]2O1.O=S(=O)(O)O`, the Phospholipidosis result is given as “Positive: strong inducer confirmed by electron microscopy”.

As for `CN1CCN(C2=Nc3cc(Cl)ccc3N(C)n3cccc32)CC1`, the Phospholipidosis entry is recorded as “Positive: strong inducer confirmed by electron microscopy”.

Turning to `CN(C)CCC=C1c2ccccc2C=Cc2c(Cl)cccc21`, the Phospholipidosis result is reported as “Positive: strong inducer confirmed by electron microscopy”.

For the molecule `CCN(CC)CCn1nc2c3c(c(C)ccc31)Sc1cc(Cl)ccc1-2`, the Phospholipidosis result is recorded as “Positive: strong inducer confirmed by electron microscopy”.

Turning to `CCN(CC)Cc1cc(Nc2ccnc3cc(Cl)ccc23)ccc1O.Cl`, the Phospholipidosis result is “Positive: weak inducer based on presence of foamy macrophages and cytoplasmic vacuolations”.

For the molecule `CC1(C)OCC(C(CS(=O)(=O)c2ccc(Oc3cccc(OC(F)(F)F)c3)cc2)NC=O)O1` (stereo not drawn), the Phospholipidosis result is listed as “Negative: confirmed by electron microscopy”.

In the case of `CC1(C)C(=O)NC(=O)N1CC(COc1ccc(-c2ccc(OC(F)(F)F)cc2)cc1)NC=O` (stereo not drawn), the Phospholipidosis entry was “Negative: confirmed by electron microscopy”.

As to `CC1(C)C(=O)NC(=O)N1CC(N)COc1ccc(-c2ccc(OC(F)(F)F)cc2)cc1` (stereo not drawn), the Phospholipidosis entry was “Positive: weak inducer based on presence of foamy macrophages and cytoplasmic vacuolations”.

For `CCCN[C@@H]1[C@H](C)[C@@H](O)[C@](C)(O)[C@@H](CC)OC(=O)[C@H](C)[C@@H](O[C@H]2C[C@@](C)(OC)[C@@H](O)[C@H](C)O2)[C@H](C)[C@@H](O[C@@H]2O[C@H](C)C[C@H](N(C)C)[C@H]2O)[C@](C)(O)C[C@H]1C`, the Phospholipidosis result is “Positive: weak inducer based on presence of foamy macrophages and cytoplasmic vacuolations”.

Consider `CCCNCCc1ccc(NS(=O)(=O)c2ccc(OC(F)(F)F)cc2)cc1`, for which the Phospholipidosis result is listed as “Positive: strong inducer confirmed by electron microscopy”.

With `CCC(c1ccc2cc(OC)ccc2c1)C(C)(C)C(=O)O` (stereo not drawn), the Phospholipidosis entry is “Negative: based on the absence of positive reported data from WMDD”.

Turning to `NC[C@H]1Cc2ccc(F)cc2[C@@H](c2ccccc2)O1`, the Phospholipidosis result was “Positive: strong inducer confirmed by electron microscopy”.

On to `Clc1ccccc1CNC[C@H]1CC[C@H](CNCc2ccccc2Cl)CC1`, for which the Phospholipidosis result is “Positive: strong inducer confirmed by electron microscopy”.

As to `CC1(C)OC[C@H]([C@@H](CS(=O)(=O)c2ccc(Oc3ccc(OC(F)(F)F)cc3)cc2)N(O)C=O)O1`, the Phospholipidosis result is listed as “Negative: confirmed by electron microscopy”.

As for `NCCc1cc(O)c(O)c(O)c1`, the Phospholipidosis result was “Positive: strong inducer confirmed by electron microscopy”.

For `CCC[C@@H](NC(=O)N1C(=O)C(CC)(CC)[C@@H]1Oc1ccc(C(=O)N2CCN(C)CC2)cc1)c1ccc2c(c1)OCO2`, the Phospholipidosis entry is “Positive: weak inducer based on presence of foamy macrophages and cytoplasmic vacuolations”.

As to `O=P(O)(O)OCC(O)CO` (stereo not drawn), the Phospholipidosis entry was “Negative: based on the absence of positive reported data from WMDD”.

For the molecule `CC1(C)NC(=O)N(C[C@@H](COc2ccc(-c3ccc(OC(F)(F)F)cc3)cc2)N(O)C=O)C1=O`, the Phospholipidosis result was “Negative: confirmed by electron microscopy”.

On to `C[n+]1ccc(-c2cc[n+](C)cc2)cc1`, for which the Phospholipidosis entry was “Positive: strong inducer confirmed by electron microscopy”.

As for `N[C@@H](Cc1ccc(N(CCCl)CCCl)cc1)C(=O)O`, the Phospholipidosis result is “Negative: based on the absence of positive reported data from WMDD”.

For the molecule `CC(=O)Nc1ccc(O)cc1` [ACETAMINOPHEN], the Phospholipidosis result was “Negative: confirmed by electron microscopy”.

On to `CC(=O)c1ccc2c(c1)N(CCCN1CCN(CCO)CC1)c1ccccc1S2` [ACETOPHENAZINE], for which the Phospholipidosis entry is listed as “Negative: based on the absence of positive reported data from WMDD”.

Take `CC(=O)Nc1c(I)cc(I)c(C(=O)O)c1I` [ACETRIZOIC ACID]: the Phospholipidosis entry is recorded as “Negative: based on the absence of positive reported data from WMDD”.

As to `Nc1ncnc2nc[nH]c12` [ADENINE], the Phospholipidosis entry was “Negative: based on the absence of positive reported data from WMDD”.

With `Nc1ncnc2c1ncn2[C@@H]1O[C@H](CO)[C@@H](O)[C@H]1O` [ADENOSINE], the Phospholipidosis result is recorded as “Negative: based on the absence of positive reported data from WMDD”.

With `CCCSc1ccc2nc(NC(=O)OC)[nH]c2c1` [ALBENDAZOLE], the Phospholipidosis entry is “Negative: based on the absence of positive reported data from WMDD”.

On to `C=CCN1C(=O)C(CC(C)C)NC1=S` (stereo not drawn) [ALBUTOIN], for which the Phospholipidosis entry is “Negative: based on the absence of positive reported data from WMDD”.

As to `Oc1ncnc2[nH]ncc12` [ALLOPURINOL], the Phospholipidosis entry was “Positive: weak inducer based on presence of foamy macrophages and cytoplasmic vacuolations”.

`C=CC[C@]1(O)CC[C@H]2[C@@H]3CCC4=CCCC[C@@H]4[C@H]3CC[C@@]21C` [ALLYLESTRENOL]: the Phospholipidosis result is “Negative: based on the absence of positive reported data from WMDD”.

As to `NC12CC3CC(CC(C3)C1)C2` [AMANTADINE], the Phospholipidosis result is listed as “Positive: strong inducer confirmed by electron microscopy”.

For `N=C(N)N/N=C1C=C/C(=N\NC(N)=S)C=C\1` [AMBAZONE], the Phospholipidosis entry is recorded as “Negative: based on the absence of positive reported data from WMDD”.

As to `Nc1c(Br)cc(Br)cc1CN[C@H]1CC[C@H](O)CC1` [AMBROXOL], the Phospholipidosis entry is “Positive: weak inducer based on presence of foamy macrophages and cytoplasmic vacuolations”.

Regarding `NCC[C@H](O)C(=O)N[C@@H]1C[C@H](N)[C@@H](O[C@H]2O[C@H](CN)[C@@H](O)[C@H](O)[C@H]2O)[C@H](O)[C@H]1O[C@H]1O[C@H](CO)[C@@H](O)[C@H](N)[C@H]1O` [AMIKACIN], the Phospholipidosis entry is recorded as “Positive: strong inducer confirmed by electron microscopy”.

In the case of `CCC1(c2ccc(N)cc2)CCC(=O)NC1=O` (stereo not drawn) [AMINOGLUTETHIMIDE], the Phospholipidosis result is “Negative: based on the absence of positive reported data from WMDD”.

Consider `Nc1nc(N)c2nc(CNc3ccc(C(=O)N[C@@H](CCC(=O)O)C(=O)O)cc3)cnc2n1` [AMINOPTERIN], for which the Phospholipidosis entry is on record as “Negative: based on the absence of positive reported data from WMDD”.

For `CCCCc1oc2ccccc2c1C(=O)c1cc(I)c(OCCN(CC)CC)c(I)c1` [AMIODARONE], the Phospholipidosis entry is recorded as “Positive: strong inducer confirmed by electron microscopy”.

Consider `CN(C)CCC=C1c2ccccc2CCc2ccccc21` [AMITRIPTYLINE], for which the Phospholipidosis entry is reported as “Positive: strong inducer confirmed by electron microscopy”.

`CC1(C)S[C@@H]2[C@H](NC(=O)[C@H](N)c3ccc(O)cc3)C(=O)N2[C@H]1C(=O)O` [AMOXICILLIN]: the Phospholipidosis entry is reported as “Negative: based on the absence of positive reported data from WMDD”.

In the case of `CC(N)Cc1ccccc1` (stereo not drawn) [AMPHETAMINE], the Phospholipidosis entry was “Negative: based on the absence of positive reported data from WMDD”.

In the case of `N=c1ccn2c(n1)O[C@H]1[C@H](O)[C@@H](CO)O[C@H]12` [ANCITABINE], the Phospholipidosis entry is recorded as “Negative: based on the absence of positive reported data from WMDD”.

For the molecule `C[C@]12CC[C@H]3[C@@H](CC=C4C[C@@H](O)CC[C@@]43C)[C@@H]1CC[C@@H]2O` [ANDROSTENEDIOL], the Phospholipidosis result is recorded as “Negative: based on the absence of positive reported data from WMDD”.

As for `CCOC(=O)C1(c2ccccc2)CCN(CCc2ccc(N)cc2)CC1` [ANILERIDINE], the Phospholipidosis result is “Negative: based on the absence of positive reported data from WMDD”.

Consider `CCCC(CCC)C(=O)O[C@H]1C[C@H]2CC[C@@H](C1)[N+]2(C)C.[Br-]` [ANISOTROPINE METHYLBROMIDE], for which the Phospholipidosis result is on record as “Negative: based on the absence of positive reported data from WMDD”.

In the case of `c1ccc(CN(CC2=NCCN2)c2ccccc2)cc1` [ANTAZOLINE], the Phospholipidosis entry is “Negative: based on the absence of positive reported data from WMDD”.

For `CCCC1C(=O)N2C(N(C)C)=Nc3ccc(C)cc3N2C1=O` (stereo not drawn) [APAZONE], the Phospholipidosis result is given as “Negative: based on the absence of positive reported data from WMDD”.

As for `CN1[C@@H]2CC[C@H]1C[C@@H](OC(=O)C(CO)c1ccccc1)C2` (stereo partly drawn) [ATROPINE], the Phospholipidosis entry was “Positive: weak inducer based on presence of foamy macrophages and cytoplasmic vacuolations”.

Source of the values: ChEMBL document CHEMBL1697821, “Development of a phospholipidosis database and predictive quantitative structure-activity relationship (QSAR) models” (Toxicol Mech Methods, 2008).
